From US7279290B2, “ATM kinase compositions and methods” (St. Jude Children's Research Hospital, priority 2002, dated 2007)

How the values were obtained:
[1] = test system: Ser^1981 in ATM; test: Ser^1981 phosphorylation of ATM in primary fibroblasts after treatment with agents; assay type: cell-based, human; settings: for Phosphorylation of ATM: over one and five hours after exposure
Description: Another aspect of the present invention provides a method of detecting DNA damage in a cell by identifying the activation state of ATM kinase.
293T cells, HeLa cells and 1070SK primary human foreskin fibroblasts (HFF) (>passage 20, ATCC) were cultured in Dulbecco's Modification of Eagle's Medium (DMEM) supplemented with 10% fetal bovine serum (FBS). GM00637 and GM09607 fibroblasts were grown in DMEM containing 15% FBS. GM00536 lymphoblast cells were grown in RPMI supplemented with 10% fetal calf serum. 293T cells were transfected using FUGENE™ (Roche, Indianapolis, Ind.) and HeLa cells, GM00637 and GM09607 with LIPOFECTAMINE™ (INVITROGEN™ Corp., Carlsbad, Calif.). Metabolic labeling was performed by pre-equilibrating cells in phosphate-free media for three hours prior to the addition of 0.5 mCi/ml ^32P orthophosphate (PerkinElmer Life Sciences Inc., Boston, Mass.) for 30 minutes. Inhibition of DNA synthesis and analysis of G2/M checkpoint after irradiation was assessed using well-known methods (e.g., Xu, et al. (2001) Mol. Cell. Biol. 21:3445-3450). Wortmannin was added to samples on ice 15 minutes prior to reactions and 5 μM manganese and 1 μg sonicated calf thymus DNA were present or absent. Proteins were crosslinked by incubating cells in formaldehyde/phosphate-buffered saline (PBS) for 10 minutes at room temperature. Formaldehyde was washed out using PBS containing 100 mM glycine and immunoprecipitation was then performed. Hypotonic swelling was performed for 1 hour in PBS containing 0.45% glucose (w/v) and 1% FBS with the NaCl concentration reduced to either 50 mM or 100 mM. HFF were incubated with chloroquine in DMEM containing 10% FBS for four hours. Prior to an eight hour incubation with Trichostatin A, HFF was grown for 24 hours in DMEM containing 0.1% FBS. […] For immunofluoresence experiments, HFF grown on glass slides were fixed in 50% methanol/50% acetone for two hours at −20° C. Cells were incubated with primary antibodies at 1/1000 (H2AXγ; Upstate, Charlottesville, Va.) and secondary antibodies at 1/500 (Cy3 anti-mouse and FITC anti-rabbit; Jackson ImmunoResearch Laboratories, Inc., West Grove, Pa.) in PBS, 10% FBS for one hour.
Mammalian cell extracts were prepared in buffer A. Cleared supernatants were immunoprecipitated with anti-FLAG® M2 sepharose or anti-ATM D1611 (Alligood, et al. (2000) Hybridoma 19:317-321) and protein A/G agarose. Beads were washed twice with buffer A and twice with RIPA buffer. Co-immunoprecipitation was performed in buffer B: 50 mM Tris (pH 7.5), 150 mM NaCl, 0.5% TWEEN® 20, 0.2% NP-40, 50 mM NaF, 1 mM AEBSF, and 1x protease inhibitor mixture (Roche, Indianapolis, Ind.).
Western blotting was performed with anti-FLAG® M5 (Sigma-Aldrich, St. Louis, Mo.), anti-ATM MAT3, anti-GST (Amersham Pharmacia Biotech, Uppsala, Sweden) or anti-6x-His (Sigma-Aldrich, St. Louis, Mo.).

[2] = test system: ATM protein; test: ATM phosphorylation after chromatin-modifying treatments (immunoblot and immunofluorescence); assay type: cell-based, human
Text: Since such a high fraction of cellular ATM becomes phosphorylated so rapidly in the presence of so few DNA strand breaks, it is unlikely that the ATM oligomers could require direct binding to DNA strand breaks for activation and autophosphorylation. Therefore, the introduction of DNA strand breaks may cause a change in the nucleus that activates ATM at a distance from the break itself. As DNA strand breaks introduced by ionizing irradiation rapidly alter topological constraints on DNA (Roti Roti and Wright (1987) Cytometry 8:461-467; Jaberaboansari, et al. (1988) Radiat. Res. 114:94-104; Malyapa, et al. (1996) Int. J. Radiat. Oncol. Biol. Phys. 35:963-973),alterations in some aspect of chromatin structure fit the criteria of being a rapid change and being able to act a distance in the nucleus. Chromatin and chromosome structures can be altered in the absence of DNA breaks by hypotonic conditions (Earnshaw, and Laemmli (1983) J. Cell Biol. 96:84-93; Jeppesen, et al. (1992) Chromosoma 101:322-332), exposure to chloroquine (Krajewski (1995) FEBS Letters 361:149-152; Jensen, et al. (1994) Cancer Res. 54:2959-2963; Snyder (2000) Environ. Mol. Mutagen. 35:13-21), or treatment with histone deaceylase inhibitors (Krajewski (1999) J. Biomol. Struct. Dynam. 16:1097-1106; Yoshida, et al. (1995) BioEssays 17:423-430; Kuo and Allis (1998) BioEssays 20:615-626). […]

[3] = test system: HeLa cells; test: Radioprotection assay (colony formation after irradiation); assay type: cell-based; settings: for Average Number of Colonies*: 2 μg/ml chloroquine one hour, washed one hour, 1000 cells plated
Description: HeLa cells were treated with 2 μg/ml of chloroquine for one hour, washed for one hour, and irradiated at 2 or 6 Gy. Subsequently, 1000 cells were plated and assessed for colony formation.

[4] = test system: HFF; test: Cell death of HFF during incubation; settings: HFF incubated with chloroquine four hours
Description: 293T cells, HeLa cells and 1070SK primary human foreskin fibroblasts (HFF) (>passage 20, ATCC) were cultured in Dulbecco's Modification of Eagle's Medium (DMEM) supplemented with 10% fetal bovine serum (FBS). GM00637 and GM09607 fibroblasts were grown in DMEM containing 15% FBS. GM00536 lymphoblast cells were grown in RPMI supplemented with 10% fetal calf serum. 293T cells were transfected using FUGENE™ (Roche, Indianapolis, Ind.) and HeLa cells, GM00637 and GM09607 with LIPOFECTAMINE™ (INVITROGEN™ Corp., Carlsbad, Calif.). Metabolic labeling was performed by pre-equilibrating cells in phosphate-free media for three hours prior to the addition of 0.5 mCi/ml ^32P orthophosphate (PerkinElmer Life Sciences Inc., Boston, Mass.) for 30 minutes. Inhibition of DNA synthesis and analysis of G2/M checkpoint after irradiation was assessed using well-known methods (e.g., Xu, et al. (2001) Mol. Cell. Biol. 21:3445-3450). Wortmannin was added to samples on ice 15 minutes prior to reactions and 5 μM manganese and 1 μg sonicated calf thymus DNA were present or absent. Proteins were crosslinked by incubating cells in formaldehyde/phosphate-buffered saline (PBS) for 10 minutes at room temperature. Formaldehyde was washed out using PBS containing 100 mM glycine and immunoprecipitation was then performed. […]

[5] = test system: Ser^1981 of ATM; test: Ser^1981 phosphorylation following irradiation of human diploid fibroblasts; assay type: cell-based
Description: Autophosphorylation of Ser^1981 was determined using glutathione-S-transferase (GST) fusion proteins containing various lengths of ATM as substrates of the ATM kinase in in vitro kinase reactions. A polypeptide containing the appropriate serine residue at 1981 was an excellent in vitro substrate, whereas a Ser^1981→Ala mutant was not phosphorylated by ATM whether the read-out was incorporation of radioactive phosphate or binding by the α-Ser^1981-P antibody. […] This concentration of wortmannin inhibits both ATM and DNA-dependent protein kinase (DNA-PK), but not ataxia- and Rad3-related protein (ATR), in vivo (Sarkaria, et al. (1998) Cancer Res. 58:4375-4382). To exclude DNA-PK as a responsible kinase, phosphorylation of Ser^1981 was determined in a cell line lacking DNA-PK activity. The kinetics and levels of IR-induced phosphorylation of Ser^1981 were identical to those in a similar cell line containing DNA-PK activity.

[6] = one hour following exposure, 2 nM camptothecin, 17 nM etoposide or 0.1% H2O2

OO [H2O2]
Phosphorylation of Ser^1981 in ATM [1, 6]: detected

COS(C)(=O)=O [MMS, methlymethanesulfonate]
Phosphorylation of Ser^1981 in ATM ([1]; five hours after treatment, compared with one hour): more prominent phosphorylation

CC(/C=C/C(=O)NO)=C\[C@@H](C)C(=O)c1ccc(N(C)C)cc1 [Trichostatin, Trichostatin A]
phosphorylation of ATM protein [2]: induced rapid and diffuse phosphorylation

C[C@@]1(CO)[C@H](O)CC[C@@]2(C)[C@H]1CC[C@H]1C[C@@H]3C[C@@]12CC[C@]3(O)CO [aphidicolin]
Phosphorylation of ATM [1]: Little or no phosphorylation

CC[C@@]1(O)C(=O)OCc2c1cc1n(c2=O)Cc2cc3ccccc3nc2-1 [camptothecin]
Phosphorylation of Ser^1981 in ATM [1, 6]: detected

CCN(CC)CCCC(C)Nc1ccnc2cc(Cl)ccc12 (stereo not shown) [chloroquine]
Average Number of Colonies* ([3]; irradiated at 2 Gy): 580
Average Number of Colonies* ([3]; irradiated at 6 Gy): 129
increase in cell survival by treatment prior to irradiation ([3]; HeLa cells, chloroquine prior to irradiation): 30%
phosphorylation of ATM protein [2]: induced rapid and diffuse phosphorylation
cell death [4]: No cell death was observed

NC(=O)NO [hydroxyurea]
Phosphorylation of ATM [1]: Little or no phosphorylation

Cc1cn([C@H]2C[C@H](O)[C@@H](CO)O2)c(=O)[nH]c1=O [thymidine]
Phosphorylation of ATM [1]: Little or no phosphorylation

COC[C@H]1OC(=O)c2coc3c2[C@@]1(C)C1=C(C3=O)[C@@H]2CCC(=O)[C@@]2(C)C[C@H]1OC(C)=O [wortmannin]
concentration effectively inhibiting phosphorylation of Ser^1981 [5]: ≥ 20 µM
